{
  "source": "patent US5554636A",
  "about": "“N-acylated 4-hydroxphenylamine derivatives with analgesic properties and pharmaceutical compositions containing them” (priority 1995, dated 1996)",
  "key": {"[1]": {"test_system": "pain response (tail flick) in CD-1 mice", "experiment": "tail flick analgesic test", "assay_type": "in vivo, CD-1 mice (Charles-River)", "details": "for analgesic activity in tail flick test: mice, oral", "protocol": "(§1) Analgesic activity was measured in CD-1 mice (Charles-River) on the basis of the following three methods:\nIn the tail flick method (D'Amour, F. E., Smith, D. L., J. Pharmacol. Exp. Ther. 72, 74, 1941), the tail of each mouse is exposed to a concentrated light beam; when the animal feels pain, it removes its tail abruptly from said beam, and the latency time of this flick response is measured. The compound indicated by each symbol was administered orally to groups of 10 mice at the doses indicated as abscissae. The analgesia was quantified before and 15, 30, 60 and 120 minutes after the administration of each compound. The peak activity (30 minutes) was plotted as the percentage of mice in which the latency time for flicking the tail was at least doubled."}, "[2]": {"test_system": "pain response (hotplate) in CD-1 mice", "experiment": "hotplate analgesic test", "assay_type": "in vivo, CD-1 mice (Charles-River)", "details": "for analgesic activity in hotplate test (words): mice, oral", "protocol": "as §1\nThe second method employed is the hotplate method (Wolfe, G. and MacDonald, A. D., J. Pharmacol. Exp. Ther. 80, 300, 1944). The mouse is placed on a plate at 54° C., and the latency time of withdrawal of a hind foot or a jump is measured. Groups of 10 mice, to which the compounds were administered orally at the doses indicated as abscissae, were subjected to the hotplate test before and at the end of 30 and 60 minutes following administration of the compounds. The mean latency at 30 and 60 minutes minus the baseline latency is plotted as ordinates."}, "[3]": {"test_system": "writhes produced by intraperitoneal acetic acid in CD-1 mice", "experiment": "acetic acid writhing test", "assay_type": "in vivo, CD-1 mice (Charles-River)", "details": "oral; for ED50: Mus musculus, 25 min, 0.4% acetic acid i.p. 25 minutes later", "protocol": "as §1\n(§2) The third method consists in measuring the number of writhes performed by a mouse as a manifestation of the pain produced by an intraperitoneal injection of 10 mL/kg of 0.4% acetic acid solution. […] Following oral administration of each compound, the mice (groups of 8 or more) received, 25 minutes later, an intraperitoneal injection of 10 mL/kg of 0.4% acetic acid. The number of writhes was counted 5-15 minutes after the injection of acetic acid."}, "[4]": {"test_system": "yeast-induced pyretic response in Sprague-Dawley rats", "experiment": "antipyretic activity (yeast-induced temperature increase)", "assay_type": "in vivo", "details": "oral; for antipyretic effect: at the doses studied", "protocol": "Antipyretic activity was determined in Sprague-Dawley rats weighing 130-220 g. The animals were injected subcutaneously with a 15% suspension of yeast dissolved in saline solution (1 mL/100 g body weight). Body temperature was measured by means of a rectal thermistor connected to a Cole-Palmer remote thermometer. The temperature at which the experiment was started was the temperature determined 2 hours after the administration of yeasts. Temperature measurements were subsequently made in animals to which paracetamol (standard) or the test compound was administered orally (Suspension K, Bioserve). The results, expressed as the percentage increase in temperature from the baseline value to that obtained 6 hours after the subcutaneous administration of yeast, are given in FIG. 4."}, "mice": {"test_system": "mice", "experiment": "mortality after oral administration", "details": "summary statement", "protocol": "(§3) Toxicity studies were based on the measurement of two parameters: mortality and hepatotoxicity.\nMortality was determined by means of the oral administration of 1 g/kg of paracetamol or the test compound (in Suspension K, Bioserve). For this purpose, the number of mice surviving 18 hours after the administration of each compound was counted."}, "[5]": {"test_system": "plasma GPT and GOT transaminase levels", "details": "mouse, in vivo", "protocol": "as §3\n(§4) For the hepatotoxicity study, mice were kept fasted overnight. The following morning, the compounds were administered orally under ether anesthesia. […] Paracetamol was dissolved in 0.5% tragacanth in saline solution. 24 hours after administration of the compounds, blood was withdrawn from the orbital plexus of the mice anesthetized with ether, and placed in heparinized capillary tubes. The samples were centrifuged at 2000 rpm for 10 minutes, and the plasma glutamic-oxaloacetic transaminase (GOT) and glutamicpyruvic transaminase (GPT) levels were determined spectrophotometrically using Sigma kits. The number of animals used in each group is indicated within each column."}, "[6]": {"experiment": "solubility remark in hepatotoxicity study", "assay_type": "physicochemical", "protocol": "as §4"}, "[7]": {"test_system": "pain response in CD-1 mice", "experiment": "overall analgesic activity (tail flick, hotplate and acetic acid tests)", "assay_type": "in vivo, CD-1 mice (Charles-River)", "details": "oral", "protocol": "as §1, §2"}},
  "data": [
    {"smiles": "O=C(CN1C(=O)c2ccccc2S1(=O)=O)Nc1ccc(O)cc1", "note": "[Example 1, 2-[2,3-Dihydro-3-oxo-1,2-benzisothiazol-2-yl 1,1-dioxide]-N-(4-hydroxyphenyl)acetamide]", "values": [
      {"measurement": "analgesic activity in tail flick test", "setting": "[1]", "value": "did not display activity"},
      {"measurement": "analgesic activity in hotplate test (words)", "setting": "[2]", "value": "did not display activity"},
      {"measurement": "ED50", "setting": "[3]", "value": 121, "unit": "mg/kg"},
      {"measurement": "analgesic activity in acetic acid test", "setting": "[3]", "value": "displayed an analgesic effect"},
      {"measurement": "antipyretic effect", "setting": "[4]", "value": "did not display antipyretic effects"},
      {"measurement": "antipyretic effect", "setting": "[4]; listed as Example I", "value": "not possessing antipyretic effects"},
      {"measurement": "toxicity compared with paracetamol", "setting": "mice", "value": "much lower toxicity"},
      {"measurement": "hepatotoxicity", "setting": "[5]", "value": "lacks hepatotoxicity"},
      {"measurement": "solubility", "setting": "[6]", "value": "poor solubility"},
      {"measurement": "analgesic profile / analgesic activity", "setting": "[7]", "value": "analgesic profile identical to that of paracetamol"},
      {"measurement": "analgesic profile / analgesic activity", "setting": "[7]; listed as Example I", "value": "analgesic activity equivalent to that of paracetamol"}
    ]},
    {"smiles": "CN1CC[C@]23c4c5ccc(O)c4O[C@H]2[C@@H](O)C=C[C@H]3[C@H]1C5", "note": "[Morphine]", "values": [
      {"measurement": "ED50", "setting": "[1]; Mus musculus, po, read-out: ED50, tail flick test", "value": 28.5, "unit": "mg/kg"},
      {"measurement": "analgesic activity in tail flick test", "setting": "[1]", "value": "active"},
      {"measurement": "ED50", "setting": "[2]; Mus musculus, po, read-out: ED50, hotplate test", "value": 22.3, "unit": "mg/kg"},
      {"measurement": "analgesic activity in hotplate test (words)", "setting": "[2]", "value": "active"},
      {"measurement": "analgesic activity in acetic acid test", "setting": "[3]", "value": "active"}
    ]},
    {"smiles": "CC(=O)Nc1ccc(O)cc1", "note": "[Paracetamol]", "values": [
      {"measurement": "analgesic activity in tail flick test", "setting": "[1]", "value": "did not display activity"},
      {"measurement": "analgesic activity in hotplate test (words)", "setting": "[2]", "value": "minimally active"},
      {"measurement": "analgesic activity in hotplate test (words)", "setting": "[2]; listed as paracetamol", "value": "did not display activity"},
      {"measurement": "ED50", "setting": "[3]", "value": 130, "unit": "mg/kg"},
      {"measurement": "analgesic activity in acetic acid test", "setting": "[3]", "value": "effective"},
      {"measurement": "ED50", "setting": "[4]; Rattus norvegicus, yeast s.c., read-out: ED50, reduction of pyretic response", "value": 77.7, "unit": "mg/kg"},
      {"measurement": "antipyretic effect", "setting": "[4]", "value": "reduced the pyretic response in a dose-dependent manner"}
    ]}
  ]
}
